Legend:
Echinochloa crus-galli [1] = experiment: Herbicidal effect test in submerged condition by treatment before weed-generation (1); assay type: in vivo; conditions: 0.64 g/a, water surface treated on day of sowing, 3 weeks after treatment
Summary of the method: (§1)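 Alluvial soil flooded to 4 cm water depth; Echinochloa crus-galli, Scirpus juncoides and Monochoria vaginalis seeds sown, rice transplanted at 2.5-leaf stage. Wettable powder diluted in water applied to water surface on sowing day; greenhouse 25–30° C. Effect scored 0–5 by herbicidal rate after 3 weeks.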

Scirpus juncoides [2] = experiment: as above; assay type: in vivo; conditions: 0.64 g/a, water surface treated on day of sowing, 3 weeks after treatment
Summary of the method: as §1

Monochoria vaginalis [3] = experiment: as above; assay type: in vivo; conditions: 0.64 g/a, water surface treated on day of sowing, 3 weeks after treatment
Summary of the method: as §1

Amaranthus retroflexus [4] = experiment: Herbicidal effect test by soil treatment; assay type: in vivo; conditions: 1.6 g/a, 3 weeks after treatment
Summary of the method: (§2)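 Seeds were sown in sterilized diluvial soil under about 1.5 cm cover, then the soil surface was sprayed uniformly with a water-diluted wettable powder at a predetermined formulation amount. Herbicidal effect was scored per species 3 weeks after treatment.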

Ambrosia elatior [5] = experiment: Herbicidal effect test by soil treatment; assay type: in vivo; conditions: 1.6 g/a, 3 weeks after treatment
Summary of the method: as §2

Chenopodium album [6] = experiment: Herbicidal effect test by soil treatment; assay type: in vivo; conditions: 1.6 g/a, 3 weeks after treatment
Summary of the method: as §2

Setaria viridis [7] = experiment: Herbicidal effect test by soil treatment; assay type: in vivo; conditions: 1.6 g/a, 3 weeks after treatment
Summary of the method: as §2

corn (Zea mays) [8] = experiment: Herbicidal effect test by soil treatment; assay type: in vivo; conditions: 1.6 g/a, 3 weeks after treatment
Summary of the method: as §2

Echinochloa crus-galli [9] = experiment: Herbicidal effect test by soil treatment; assay type: in vivo; conditions: 1.6 g/a, 3 weeks after treatment
Summary of the method: as §2

Polygonum blumei [10] = experiment: Herbicidal effect test by soil treatment; assay type: in vivo; conditions: 1.6 g/a, 3 weeks after treatment
Summary of the method: as §2

Digitaria adscendes [11] = experiment: Herbicidal effect test by soil treatment; assay type: in vivo; conditions: 1.6 g/a, 3 weeks after treatment
Summary of the method: as §2

Avena fatua [12] = experiment: Herbicidal effect test by soil treatment; assay type: in vivo; conditions: 1.6 g/a, 3 weeks after treatment
Summary of the method: as §2

Beta vulgaris (beet) [13] = experiment: Herbicidal effect test by soil treatment; assay type: in vivo; conditions: 1.6 g/a, 3 weeks after treatment
Summary of the method: as §2

Abutilon avicennae [14] = experiment: Herbicidal effect test by soil treatment; assay type: in vivo; conditions: 1.6 g/a, 3 weeks after treatment
Summary of the method: as §2

Black-grass [15] = experiment: Herbicidal effect test by soil treatment; assay type: in vivo; conditions: 1.6 g/a, 3 weeks after treatment
Summary of the method: as §2

[16] = system: Triticum aestivum (wheat); experiment: Herbicidal effect test by soil treatment; assay type: in vivo; conditions: 1.6 g/a, 3 weeks after treatment
Summary of the method: as §2

Stellaria media [17] = experiment: Herbicidal effect test by soil treatment; assay type: in vivo; conditions: 1.6 g/a, 3 weeks after treatment
Summary of the method: as §2

soybean (Glycine max) [18] = experiment: Herbicidal effect test by soil treatment; assay type: in vivo; conditions: 1.6 g/a, 3 weeks after treatment
Summary of the method: as §2

direct sown rice [19] = experiment: Herbicidal effect test by soil treatment; assay type: in vivo, Oryza sativa; conditions: 1.6 g/a, 3 weeks after treatment
Summary of the method: as §2

Echinochloa crus-galli [20] = experiment: Herbicidal effect test in submerged condition by treatment during weed-growth stage (1); assay type: in vivo; conditions: 0.64 g/a, treated at 1st to 2nd leaf stage, 3 weeks after treatment
Summary of the method: (§3)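 Paddy-soil pots flooded to 4 cm water depth were sown and grown in a greenhouse at 25 to 30° C until weeds reached 1st to 2nd leaf stage. A wettable powder diluted in water to a predetermined formulation amount was applied to the water surface. Herbicidal effect was scored 3 weeks after treatment against set criteria.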

Scirpus juncoides [21] = experiment: as above; assay type: in vivo; conditions: 0.64 g/a, treated at 1st to 2nd leaf stage, 3 weeks after treatment
Summary of the method: as §3

Monochoria vaginalis [22] = experiment: as above; assay type: in vivo; conditions: 0.64 g/a, treated at 1st to 2nd leaf stage, 3 weeks after treatment
Summary of the method: as §3

direct sown rice [23] = experiment: Herbicidal effect test by foliage treatment; assay type: in vivo, Oryza sativa; conditions: 1.6 g/a; foliage treatment after growth of 14 days; 3 weeks after treatment
Summary of the method: (§4)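 Greenhouse-grown plants (25–30 °C) sprayed on foliage 14 days after sowing with water-diluted wettable powder at set formulation rates. Herbicidal effect scored visually 3 weeks after treatment on a graded scale.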

Amaranthus retroflexus [24] = experiment: Herbicidal effect test by foliage treatment; assay type: in vivo; conditions: 1.6 g/a; foliage treatment after growth of 14 days; 3 weeks after treatment
Summary of the method: as §4

Ambrosia elatior [25] = experiment: Herbicidal effect test by foliage treatment; assay type: in vivo; conditions: 1.6 g/a; foliage treatment after growth of 14 days; 3 weeks after treatment
Summary of the method: as §4

Chenopodium album [26] = experiment: Herbicidal effect test by foliage treatment; assay type: in vivo; conditions: 1.6 g/a; foliage treatment after growth of 14 days; 3 weeks after treatment
Summary of the method: as §4

Setaria viridis [27] = experiment: Herbicidal effect test by foliage treatment; assay type: in vivo; conditions: 1.6 g/a; foliage treatment after growth of 14 days; 3 weeks after treatment
Summary of the method: as §4

corn (Zea mays) [28] = experiment: Herbicidal effect test by foliage treatment; assay type: in vivo; conditions: 1.6 g/a; foliage treatment after growth of 14 days; 3 weeks after treatment
Summary of the method: as §4

Echinochloa crus-galli [29] = experiment: Herbicidal effect test by foliage treatment; assay type: in vivo; conditions: 1.6 g/a; foliage treatment after growth of 14 days; 3 weeks after treatment
Summary of the method: as §4

Polygonum blumei [30] = experiment: Herbicidal effect test by foliage treatment; assay type: in vivo; conditions: 1.6 g/a; foliage treatment after growth of 14 days; 3 weeks after treatment
Summary of the method: as §4

Digitaria adscendes [31] = experiment: Herbicidal effect test by foliage treatment; assay type: in vivo; conditions: 1.6 g/a; foliage treatment after growth of 14 days; 3 weeks after treatment
Summary of the method: as §4

Avena fatua [32] = experiment: Herbicidal effect test by foliage treatment; assay type: in vivo; conditions: 1.6 g/a; foliage treatment after growth of 14 days; 3 weeks after treatment
Summary of the method: as §4

Beta vulgaris (beet) [33] = experiment: Herbicidal effect test by foliage treatment; assay type: in vivo; conditions: 1.6 g/a; foliage treatment after growth of 14 days; 3 weeks after treatment
Summary of the method: as §4

Abutilon avicennae [34] = experiment: Herbicidal effect test by foliage treatment; assay type: in vivo; conditions: 1.6 g/a; foliage treatment after growth of 14 days; 3 weeks after treatment
Summary of the method: as §4

Black-grass [35] = experiment: Herbicidal effect test by foliage treatment; assay type: in vivo; conditions: 1.6 g/a; foliage treatment after growth of 14 days; 3 weeks after treatment
Summary of the method: as §4

[36] = system: Triticum aestivum (wheat); experiment: Herbicidal effect test by foliage treatment; assay type: in vivo; conditions: 1.6 g/a; foliage treatment after growth of 14 days; 3 weeks after treatment
Summary of the method: as §4

Stellaria media [37] = experiment: Herbicidal effect test by foliage treatment; assay type: in vivo; conditions: 1.6 g/a; foliage treatment after growth of 14 days; 3 weeks after treatment
Summary of the method: as §4

soybean (Glycine max) [38] = experiment: Herbicidal effect test by foliage treatment; assay type: in vivo; conditions: 1.6 g/a; foliage treatment after growth of 14 days; 3 weeks after treatment
Summary of the method: as §4

In the case of COc1cc(OC)nc(NC(=O)NS(=O)(=O)c2c(C3=NOCC(C)(CI)O3)c(C)nn2C)n1 (centres unmarked) [Compound 8, N-((4,6-dimethoxypyrimidin-2-yl)aminocarbonyl)-4-(5-iodomethyl-5-methyl-5H,6H-1,4,2-dioxadin-3-yl)-1,3-dimethylpyrazole-5-sulfonamide], the “herbicidal effect, A: Echinochloa crus-galli” value (Echinochloa crus-galli [1]) is reported as 3 (Herbicidal rate 40% or more and less than 70%), the “herbicidal effect, B: Scirpus juncoides” value (Scirpus juncoides [2]) is reported as 4 (Herbicidal rate 70% or more and less than 90%) and the “herbicidal effect, C: Monochoria vaginalis” value (Monochoria vaginalis [3]) is reported as 5 (Herbicidal rate 90% or more (almost complete death)). The “herbicidal effect, J: Amaranthus retroflexus” value (Amaranthus retroflexus [4]) was 5 (Herbicidal rate 90% or more (almost complete death)), the “herbicidal effect, I: Ambrosia elatior” value (Ambrosia elatior [5]) was 5 (Herbicidal rate 90% or more (almost complete death)) and the “herbicidal effect, K: Chenopodium album” value (Chenopodium album [6]) was 2 (Herbicidal rate 20% or more and less than 40%). For the same molecule, the “herbicidal effect, E: Setaria viridis” value (Setaria viridis [7]) was 0 (Herbicidal rate 5% or less (little effect)), the “herbicidal effect, b: corn (Zea mays)” value (corn (Zea mays) [8]) was 0 (Herbicidal rate 5% or less (little effect)) and the “herbicidal effect, A: Echinochloa crus-galli” value (Echinochloa crus-galli [9]) was 1 (Herbicidal rate 5% or more and less than 20%). For the same molecule, the “herbicidal effect, L: Polygonum blumei” value (Polygonum blumei [10]) was 5 (Herbicidal rate 90% or more (almost complete death)), the “herbicidal effect, D: Digitaria adscendes” value (Digitaria adscendes [11]) was 3 (Herbicidal rate 40% or more and less than 70%) and the “herbicidal effect, F: Avena fatua” value (Avena fatua [12]) was 0 (Herbicidal rate 5% or less (little effect)). For the same molecule, the “herbicidal effect, f: Beta vulgaris (beet)” value (Beta vulgaris (beet) [13]) was 2 (Herbicidal rate 20% or more and less than 40%), the “herbicidal effect, H: Abutilon avicennae” value (Abutilon avicennae [14]) was 0 (Herbicidal rate 5% or less (little effect)) and the “herbicidal effect, G: Black-grass” value (Black-grass [15]) was 3 (Herbicidal rate 40% or more and less than 70%). For the same molecule, the “herbicidal effect, e: Triticum aestivum (wheat)” value [16] was 1 (Herbicidal rate 5% or more and less than 20%), the “herbicidal effect, M: Stellaria media” value (Stellaria media [17]) was 4 (Herbicidal rate 70% or more and less than 90%) and the “herbicidal effect, c: soybean (Glycine max)” value (soybean (Glycine max) [18]) was 0 (Herbicidal rate 5% or less (little effect)). For the same molecule, the “herbicidal effect, d: direct sown rice” value (direct sown rice [19]) was 2 (Herbicidal rate 20% or more and less than 40%), the “herbicidal effect, A: Echinochloa crus-galli” value (Echinochloa crus-galli [20]) was 4 (Herbicidal rate 70% or more and less than 90%) and the “herbicidal effect, B: Scirpus juncoides” value (Scirpus juncoides [21]) was 4 (Herbicidal rate 70% or more and less than 90%). For the same molecule, the “herbicidal effect, C: Monochoria vaginalis” value (Monochoria vaginalis [22]) was 4 (Herbicidal rate 70% or more and less than 90%), the “herbicidal effect, d: direct sown rice” value (direct sown rice [23]) was 1 (Herbicidal rate 5% or more and less than 20%) and the “herbicidal effect, J: Amaranthus retroflexus” value (Amaranthus retroflexus [24]) was 4 (Herbicidal rate 70% or more and less than 90%). For the same molecule, the “herbicidal effect, I: Ambrosia elatior” value (Ambrosia elatior [25]) was 4 (Herbicidal rate 70% or more and less than 90%), the “herbicidal effect, K: Chenopodium album” value (Chenopodium album [26]) was 4 (Herbicidal rate 70% or more and less than 90%) and the “herbicidal effect, E: Setaria viridis” value (Setaria viridis [27]) was 4 (Herbicidal rate 70% or more and less than 90%). For the same molecule, the “herbicidal effect, b: corn (Zea mays)” value (corn (Zea mays) [28]) was 4 (Herbicidal rate 70% or more and less than 90%), the “herbicidal effect, A: Echinochloa crus-galli” value (Echinochloa crus-galli [29]) was 4 (Herbicidal rate 70% or more and less than 90%) and the “herbicidal effect, L: Polygonum blumei” value (Polygonum blumei [30]) was 4 (Herbicidal rate 70% or more and less than 90%). For the same molecule, the “herbicidal effect, D: Digitaria adscendes” value (Digitaria adscendes [31]) was 3 (Herbicidal rate 40% or more and less than 70%), the “herbicidal effect, F: Avena fatua” value (Avena fatua [32]) was 1 (Herbicidal rate 5% or more and less than 20%) and the “herbicidal effect, f: Beta vulgaris (beet)” value (Beta vulgaris (beet) [33]) was 4 (Herbicidal rate 70% or more and less than 90%). For the same molecule, the “herbicidal effect, H: Abutilon avicennae” value (Abutilon avicennae [34]) was 5 (Herbicidal rate 90% or more (almost complete death)), the “herbicidal effect, G: Black-grass” value (Black-grass [35]) was 0 (Herbicidal rate 5% or less (little effect)) and the “herbicidal effect, e: Triticum aestivum (wheat)” value [36] was 1 (Herbicidal rate 5% or more and less than 20%). For the same molecule, the “herbicidal effect, M: Stellaria media” value (Stellaria media [37]) was 4 (Herbicidal rate 70% or more and less than 90%) and the “herbicidal effect, c: soybean (Glycine max)” value (soybean (Glycine max) [38]) was 4 (Herbicidal rate 70% or more and less than 90%).

Source: US7709636B2, “Pyrazole sulfonylurea compound and herbicide” (Nissan Chemical Industries, Ltd., priority 2004, dated 2010)
